# Data: patent publication US20130157949A1, “Novel Peptides for Wound Healing” (GENE SIGNAL INTERNATIONAL SA, priority 2010, published 2013)
# Tests used:
# Protein Kinase B (Akt) = assay: activation status of protein kinase B (pAkt) by western-blot in HMEC; type: cell-based, human; details: 400 μg/ml, 10 min and 30 min post incubation, immunoblot
# Method: The activation status of pAkt was determined by western-blot using an anti-phosphoserine 473 pAkt antibody, and anti-GAPDH mAb as internal standard.
# The status of Akt in the HMEC following incubation with either peptide 7 or peptide 10 was investigated.
# VEGFA mRNA = assay: VEGFA expression by real time quantitative PCR in HMEC; type: cell-based, human; details: 400 μg/ml, 6 h, QPCR
# Method: After exposure to the indicated concentrations of peptide 7 or peptide 10 issued from the recombinant protein GS-156A or vehicle for 24 h, HMEC (5×10^5 cells/ml), total mRNA were isolated using NucleoSpin RNA II kit. RNA yields and purity were assessed by spectrophotometric analysis. The real-time RT-PCR was performed as previously described (Voghel et al., 2008). […] The real-time PCR reactions were carried out with the DNA Engine OPTICON 2 continuous fluorescence detector (MJ Research, Waltham, Mass., U.S.A.). The results were quantified using the equation: CopyTF:CopyGAPDH=2C(t)GAPDH−C(t)TF. All PCR products were analyzed by electrophoresis on a 1.5% agarose gel, visualized with ethidium bromide, and analyzed using the Genesnap 6.00.26 software (Syngene, Cambridge, U.K.). […]
# The influence of peptide 7 and peptide 10 on VEGFA expression was investigated. For that, HMEC were incubated with either peptide 7 (400 μg/ml final concentration), or peptide 10 (400 μg/ml final concentration) for 6 h, followed by measuring the expression of VEGFA by real time quantitative PCR (QPCR).
# trans-dermal wounds = assay: wound healing of trans-dermal wounds in mice, topical application; type: in vivo; details: for % healing at day 1 post treatment / % healing at day 2 post treatment / % healing at day 3 post treatment / % healing at day 4 post treatment: topical 0.5 mg/ml (5 mg/kg), 1 application/day, 5 mm punch wounds; for speed of wound healing compared with Vehicle / 156A protein: topical 0.5 mg/ml, time course over 4 days
# Method: The vehicle (Batch A) was administered by topical application at a standardized volume of 10 ml/kg for all applications. The peptides of the invention, the protein 156A or the peptides 2, 6 and 9 were administered by topical application at the concentration of 0.5 mg/ml in the vehicle. The protocols of treatment were as it follows: • Group 1: (Batch A, Vehicle): 1 topical application 10 minutes after wounding • Group 2: (Peptide 7, 0.5 mg/ml): 1 topical application 10 minutes after wounding • Group 3: (Peptide 10, 0.5 mg/ml): 1 topical application 10 minutes after wounding • Group 4: (Peptide 11, 0.5 mg/ml): 1 topical application 10 minutes after wounding • Group 5: (Peptide 7B, 0.5 mg/ml): 1 topical application 10 minutes after wounding. • Group 6: (Peptide 2, 0.5 mg/ml): 1 topical application 10 minutes after wounding. • Group 7: (Peptide 6, 0.5 mg/ml): 1 topical application 10 minutes after wounding. • Group 8: (Peptide 9, 0.5 mg/ml): 1 topical application 10 minutes after wounding. • Group 9: (Protein 156A, 0.5 mg/mL): 1 topical application 10 minutes after wounding.
# Healthy female BALBC Swiss mice were anesthetized by IP injection of Ketamine-Xylazine (80 mg/kg-12 mg/kg; Ref. K-113, Sigma, France). Two trans-dermal wounds, each of 5 mm in width and about 1 to 2 mm in depth were realized in the right and the left flanks of each mouse using 5 mm punch.
# At D1, and 10 min post-injury of the animals, the mice were randomized into 9 groups of 3 mice each.
# All treatments were realized by topical application at the frequency of 1 topical application/day, for 4 days. Animals of group 1 were treated with the vehicle solution (Batch A). Animals of groups 2 to 9 were treated with the indicated peptide or with the 156A protein at a dose of 5 mg/kg.
# MAPK (Erk1 and 2) = assay: activation status of MAPK (pErk1/2) by western-blot in HMEC; type: cell-based, human; details: immunoblot pErk1/2
# Method: The activation status of MAPK was determined by western-blot using an anti-activated MAPK (pErk1/2) antibody, and anti-GAPDH mAb as internal standard.
# We have also investigated the status of the mitogen activated protein kinase (MAPK), as it is well established that it represents another cascade of intracellular signaling could be implicated in the regulation of VEGF expression.
# [1] = tested on: human microvascular endothelial cells (HMEC); assay: in vitro angiogenesis assay (Matrigel, endothelial tube formation); type: cell-based; details: for in vitro angiogenesis-inducing activity: 400 μg/ml final concentration, images at 6 h post incubation; for classification of in vitro angiogenesis inducing activity: 400 μg/ml, rank order among peptides
# Method: Angiogenesis of human microvascular endothelial cells (HMEC) was induced in vitro using a Matrigel assay described by Grant et α1 (1989, Cell, 1989; 58:933). This method is based on the differentiation of endothelial cells to form capillary structures on a Matrigel Matrix. Matrigel is prepared the Engelbreth-Holm-Swarm (EHS) mouse tumor, which represents a complex mixture of basement membrane proteins including type IV collagen, entactin, proteo-heparan sulfate and other growth factors.
# Briefly, 250 μl of Matrigel were transferred to each well of a 24-well culture plate and incubated at 37° C. for 30 min to allow for the matrix solution to solidify. HMEC grown in complete growth medium EGM-2MV were harvested by trypsin, suspended in the same growth medium and 500 μl containing 70 000 cells were added on top of the solidified Matrigel in each well and in the presence or absence of protein. Cells were maintained in a humidified atmosphere air containing 5% CO2 at 37° C. for 18-24 hrs. Endothelial tube formation was observed and photographed under an inverted light microscope.
# The designed small peptides 7 (SEQ ID NO: 1), 10 (SEQ ID NO: 3), and 11 (SEQ ID NO: 4) were synthesized and tested for their in vitro angiogenesis-inducing activities (as described in Methods here above).
# The results of the in vitro angiogenesis assay were presented in FIG. 1, using HMEC and 400 μg/ml final concentration of each peptide. Images were taken at 6 h post incubation.
# VEGFA protein = VEGFA protein by sandwich ELISA in HMEC culture medium; type: cell-based, human
# Method: Serum-deprived HMEC were incubated with different concentrations of peptide 7 or peptide 10 or vehicle […]. After 3 washes with ice-cold PBS, cells were suspended with the protein extraction buffer (PEB) (20 mM Tris-HCl pH 7.5, 150 mM NaCl, 1 mM EDTA, 1 mM EGTA, 1% Triton, 25 mM sodium pyrophosphate, 1 mM β-glycero-phosphate, 1 mM Na3Vo4, 1 μg/ml leupeptine, 1 μM PMSF). The protein content was measured by Bradford. VEGFA concentration in the culture medium or in the extracts was determined by human VEGFA Sandwich ELISA kit (Cell Signaling technology) according to the manufacturer's instructions.
# [2] = tested on: trans-dermal wounds in diabetic mice; assay: wound healing in diabetic mice, subcutaneous injection beneath the wound; type: in vivo, ob/ob C57BL6/J mice; details: 2 mg/ml or 5 mg/ml, sb injection 200 μl/day for 4 days, 8 mm punch wounds
# Method: Diabetic female ob/ob C57BL6/J mice were anesthetized by IP injection of Ketamine-Xylazine (80 mg/kg-12 mg/kg; Ref. K-113, Sigma, France). Two trans-dermal wounds, each of 8 mm in width and about 1 to 2 mm in depth were realized in the right flank of each mouse using 8 mm punch.
# At D1, and 10 min post-injury of the animals, the mice were randomized into 3 groups of 5 mice each.
# All treatments were realized by subcutaneous (sb) injections beneath the wounded area at the frequency of 1 sb injection/day, for 4 days. Animals of group 1 were injected with the vehicle solution (Batch A; 200 μl/injection, beneath the wounded area). Animals of groups 2 were sb injected with P7 solution in vehicle (2 mg of P7/ml of vehicle) (200 μl/injection; 16 mg/kg; beneath the wounded area). Animals of groups 3 were sb injected with P7 solution in vehicle (5 mg of P7/ml of vehicle) (200 μl/injection; 40 mg/kg; beneath the wounded area).
substance,measurement,setting,value
"VSKDVCRL [Peptide 10, fragment of the protein 156A, chemically synthesized]",level of activated Akt relative to Control,Protein Kinase B (Akt),much higher level of activated Akt
same,VEGFA mRNA higher than Control (no peptide),VEGFA mRNA,about 60%
same,% healing at day 1 post treatment,trans-dermal wounds,42.8%
same,% healing at day 2 post treatment,trans-dermal wounds,61.3%
same,% healing at day 3 post treatment,trans-dermal wounds,65.6%
same,% healing at day 4 post treatment,trans-dermal wounds,78.9%
same,speed of wound healing compared with Vehicle / 156A protein,trans-dermal wounds,healed faster than the wounds treated with Vehicle or with the 156A protein
same,level of activation of Erk1 and 2 (MAPK) relative to Control,MAPK (Erk1 and 2),not significant variations in level of activation of Erk1 and 2
same,in vitro angiogenesis-inducing activity,[1],strong in vitro angiogenesis-inducing activity
same,classification of in vitro angiogenesis inducing activity,[1],peptide 7>peptide 10>peptide 11
"ELDLQASL [Peptide 7B, fragment of the protein 156A, chemically synthesized]",% healing at day 1 post treatment,trans-dermal wounds,33.2%
same,% healing at day 2 post treatment,trans-dermal wounds,56.9%
same,% healing at day 3 post treatment,trans-dermal wounds,63.7%
same,% healing at day 4 post treatment,trans-dermal wounds,76.6%
same,speed of wound healing compared with Vehicle / 156A protein,trans-dermal wounds,healed faster than the wounds treated with Vehicle or with the 156A protein
"TQECPVRTSLDRELDLQASL [Peptide 7, fragment of the protein 156A, chemically synthesized]",increases of VEGFA-biosynthesis and excretion,VEGFA protein; 400 μg/ml,about 2 folds
same,increase in VEGF protein within the culture medium (peak),"VEGFA protein; 400 μg/ml of peptide, p<0.001",about 97%
same,level of activated Akt relative to Control,Protein Kinase B (Akt),much higher level of activated Akt
same,VEGFA mRNA higher than Control (no peptide),VEGFA mRNA,about 170%
same,% healing at day 1 post treatment,trans-dermal wounds,52.8%
same,% healing at day 2 post treatment,trans-dermal wounds,60.1%
same,% healing at day 3 post treatment,trans-dermal wounds,65.6%
same,% healing at day 4 post treatment,trans-dermal wounds,82.9%
same,speed of wound healing compared with Vehicle / 156A protein,trans-dermal wounds,healed faster than the wounds treated with Vehicle or with the 156A protein
same,level of activation of Erk1 and 2 (MAPK) relative to Control,MAPK (Erk1 and 2),not significant variations in level of activation of Erk1 and 2
same,healing of the wounds in diabetic mice compared to control,[2],strong healing of the wounds
same,in vitro angiogenesis-inducing activity,[1],strong in vitro angiogenesis-inducing activity
same,classification of in vitro angiogenesis inducing activity,[1],peptide 7>peptide 10>peptide 11
"RSLRVKRTVCQSVLR [Peptide 6, comparative fragment of the 156A protein without enhanced efficiency]",speed of wound healing compared with Vehicle / 156A protein,trans-dermal wounds,healed slower than the wounds treated with Vehicle
"FQRLLKQ [Peptide 9, comparative fragment of the 156A protein without enhanced efficiency]",speed of wound healing compared with Vehicle / 156A protein,trans-dermal wounds,healed slower than the wounds treated with Vehicle
"QSQKVPRQVQS [Peptide 11, fragment of the protein 156A, chemically synthesized]",% healing at day 1 post treatment,trans-dermal wounds,41.9%
same,% healing at day 2 post treatment,trans-dermal wounds,52.1%
same,% healing at day 3 post treatment,trans-dermal wounds,58.4%
same,% healing at day 4 post treatment,trans-dermal wounds,64.4%
same,speed of wound healing compared with Vehicle / 156A protein,trans-dermal wounds,healed faster than the wounds treated with Vehicle or with the 156A protein
same,in vitro angiogenesis-inducing activity,[1],strong in vitro angiogenesis-inducing activity
same,classification of in vitro angiogenesis inducing activity,[1],peptide 7>peptide 10>peptide 11
"RLNRSDSDSSTLAKK [Peptide 2, comparative fragment of the 156A protein without enhanced efficiency]",speed of wound healing compared with Vehicle / 156A protein,trans-dermal wounds,healed slower than the wounds treated with Vehicle
